Assay [1] relates to mouse peritoneal macrophages. Description: LPS-induced cytokine release from peritoneal macrophages. It is filed as cell-based. The conditions noted are these: pre-treatment 1 μM, 4 h; LPS 5 μg/mL, 7 h. As to the method:
All PS-lipase substrate assays were performed on either 18:0-18:2 PS (Avanti Catalog #840063) or 16:0-18:1 PS (Avanti Catalog #840034). 17:1 FFA (Sigma-Aldrich #H8896) was used an internal standard for substrate assays, as well as lipidomic analysis. 2-AG-d5 (Catalog #362162) and PGE2-d9 (Catalog #10581) were purchased from Cayman Chemicals. COLO205, MCF7, K562 and HEK293T cells were purchased from ATCC. All full-length cDNA constructs coding for serine hydrolases ABHD16A, and ABHD12 were purchased from Open Biosystems (GE Healthcare), and all primers were obtained from Integrated DNA Technologies. All DNA sequencing was performed by Eton Biosciences Inc. All cytokine analysis was done using single analyte ELISA kits purchased from R&D Systems, Mouse TNF-α (Catalog # DY410), Mouse IL-6 (Catalog # DY406), and Mouse IL-1β (Catalog # DY401). All tissue culture media and supplements (RPMI 1640, DMEM, and Trypsin) were purchased from Caisson Labs, and SILAC RPMI was purchased from Thermo Scientific. […]
Peritoneal macrophages were elicited and harvested from mice according to the standard protocols available from LIPID MAPS (See http://www.lipidmaps.org/protocols/PP0000001400.pdf and http://www.lipidmaps.org/protocols/PP0000001500.pdf). […] Cell counts measured using a Bio-Rad TC10 automated cell counter, and equal numbers of cells (2×10^6) were plated in 10 cm tissue culture dishes. […]

The subject of another assay is COLO205 cells. Put plainly: LC-MS lipid profiling of treated cells. It is filed as cell-based, human. The conditions noted are these: 1 μM, 4 h. As to the method: ABHD16A^+/+, ABHD16A^+/+, and ABHD16A^−/− littermates of 10 weeks age were anaesthetized by isoflurane and killed by decapitation. The tissues (brains were sliced laterally into two hemispheres; entire spinal cord) were harvested, weighed, and immediately submerged in liquid N2. Tissues (one half brain or entire spinal cord) were then Dounce-homogenized in 8 mL of 2:1:1 (vol/vol/vol) CHCl3: MeOH: PBS containing the internal standard mix (1 nmol 17:1 FFA, and 100 pmol each of 17:1 lyso-PS, 17:0-20:4 PS, 17:1 lyso-PC, 17:0-20:4 PC, 17:0-20:4 PE and 50 pmol of 2-AG-d5). Homogenates were transferred to a glass vial and centrifuged at 2800×g for 10 minutes to separate the two phases. The organic phase (bottom) was removed, 200 μL of formic acid was added to acidify the aqueous homogenate (to enhance extraction of phospholipids), and CHCl3 was added to make up 8 mL volume. The mixture was vortexed, and separated using centrifugation described above. Both the organic extracts were pooled, and dried under a stream of N2. The metabolomes were then re-solubilized in 120 μL of 2:1 (vol/vol) CHCl3: MeOH, and 10 μL were used for the targeted LC-MS analysis. For cellular and secreted metabolomics studies, serum free phenol red free RPMI 1640 media was used to prevent any promiscuous contributions from serum lipids. For the cellular metabolomics studies, 3×10^6 cells were used for all cancer cell lines (COLO205, K562, and MCF7) and lymphoblast cell lines (LCLs), and 2×10^6 cells were used for thioglycollate-elicited peritoneal macrophages. […]
(§1) All the metabolites analyzed in this study were quantified using the multiple reaction monitoring (MRM) methods the targeted LC/MS analysis was done using an Agilent Technologies 6460 Triple Quad LC/M with an Agilent Technologies 1290 Infinity series quaternary pump. All data was collected using the LC/MS Data Acquisition mode of the Mass Hunter Workstation Software version B.05.00 build 5.0.5027.0 SP, and analyzed using the Quantitative Analysis mode of the same software. […]

The test system of assay [2] is human lymphoblast cell lines (LCLs). Put plainly: Lyso-PS content of treated LCLs. It is filed as cell-based. The conditions noted are these: 1 μM, 4 h. As to the method:
ABHD16A^+/+, ABHD16A^+/+, and ABHD16A^−/− littermates of 10 weeks age were anaesthetized by isoflurane and killed by decapitation. The tissues (brains were sliced laterally into two hemispheres; entire spinal cord) were harvested, weighed, and immediately submerged in liquid N2. Tissues (one half brain or entire spinal cord) were then Dounce-homogenized in 8 mL of 2:1:1 (vol/vol/vol) CHCl3: MeOH: PBS containing the internal standard mix (1 nmol 17:1 FFA, and 100 pmol each of 17:1 lyso-PS, 17:0-20:4 PS, 17:1 lyso-PC, 17:0-20:4 PC, 17:0-20:4 PE and 50 pmol of 2-AG-d5). Homogenates were transferred to a glass vial and centrifuged at 2800×g for 10 minutes to separate the two phases. The organic phase (bottom) was removed, 200 μL of formic acid was added to acidify the aqueous homogenate (to enhance extraction of phospholipids), and CHCl3 was added to make up 8 mL volume. […]
as §1

The test system of a further assay is K562 cells. Put plainly: PS lipase activity of membrane fraction after in situ treatment. The conditions noted are these: 1 μM, 4 h.
For another assay, the system named is ABHD16A−/− macrophages. Description: Lyso-PS and cytokines of ABHD16A−/− macrophages. It is filed as cell-based, mouse. The conditions noted are these: basal or LPS stimulation; 1 μM, 4 h. As to the method: Concentration of secreted lyso-PS (a) and cytokines IL-6 (b) and TNF-α (c) from thioglycollate-elicited peritoneal mouse macrophages from ABHD16A^−/− mice treated with inhibitor (KC01 or KC02, 1 μM, 4 h) followed by vehicle (PBS) or LPS (5 μg/mL) for 7 h is shown. Data represent mean±s.e.m. for four biological replicates. KC01 and KC02 have no effect on lyso-PS or cytokine secretion. Other secreted and cellular lipids in ABHD16A^−/− macrophages were also unchanged by KC01 or KC02 treatment (data not shown).
Peritoneal macrophages were elicited and harvested from mice according to the standard protocols available from LIPID MAPS (See http://www.lipidmaps.org/protocols/PP0000001400.pdf and http://www.lipidmaps.org/protocols/PP0000001500.pdf). After removal of the RBC lysis buffer, the macrophages were re-suspended in RPMI 1640 with 10% FCS and IX penicillin-streptomycin. Cell counts measured using a Bio-Rad TC10 automated cell counter, and equal numbers of cells (2×10^6) were plated in 10 cm tissue culture dishes. Macrophages were allowed to adhere to the plates for 2 h at 37° C. and 5% CO2. […] Macrophages were then stimulated with lipopolysaccharide (5 μg/mL) for 7 hours. Sterile PBS was the vehicle in these studies. Four milliliters of the media was used for measuring secreted metabolites, and 0.5 mL was used for cytokine measurements.

Each structure is given as a SMILES string.

With `CCCCCCCCCCCCCC1OC(=O)/C1=C\CCCCC(N)=O` (centres unmarked) [KC01, (Z)-6-(2-oxo-4-tridecyloxetan-3-ylidene)hexanamide], the LPS-induced cytokine release entry in assay [1] is reported as “significantly blunted”. The “other lipids (PSs, PCs, PEs, lyso-PCs, lyso-PEs, MAGs)” value in the assay with COLO205 cells is on record as “No changes”. The “secreted lyso-PSs (18:1 and 18:0)” value in the assay on COLO205 cells (serum-free media) is given as “decreased”. Also, the “cellular lyso-PSs” value in the assay on COLO205 cells (vs DMSO) is recorded as “significant reductions in all detected cellular lyso-PSs”; in assay [2] (all LCLs), “decreased cellular lyso-PSs”. Moreover, the “secreted lyso-PSs” value in assay [2] (ABHD12-null LCL) is reported as “significantly lowered”. Also, in the assay on K562 cells, the “decrease of PS-lipase activity vs DMSO” value is given as more than 90%. The “cellular or secreted lyso-PS, other lipids, secreted IL-6 and TNF-α” value in the assay on ABHD16A−/− macrophages is on record as “No changes”.

The record behind these values is US20170313669A1, “LACTONE COMPOUNDS AND METHODS OF MAKING AND USING SAME” (THE SCRIPPS RESEARCH INSTITUTE, priority 2015, published 2017).
